This test concerns the target MAPK14;MAPK11;MAPK12 (human) (UniProt Q16539). Put plainly: Inhibition of p38 Kinase Activity.

SMILES strings stand for the structures. pIC50: −log10 of the molar value.

One may read the pIC50 as the IC50 on a negative log10 scale, so that one unit is a factor of ten. The low end stands for a large IC50, the high end for a small IC50. Turning to `CN(CC1CC[C@H]2C[C@@H]1C2(C)C)c1nc(Nc2ccc3ncsc3c2)nc(N2CCN(C(=O)CCC(=O)O)CC2)n1` (stereo partly specified), the pIC50 is > 5.00.
The same measure for `Cc1ccc(C(N)=O)cc1Nc1nc(N[C@H]2CCN(C(C)C#N)C2)nc(N(C)CC(C)C)n1` (stereo partly specified): > 6.00.
The same measure for `CONC(=O)c1ccc(C)c(Sc2nc(N[C@@H]3CCNC3)nc(N(C)CC(C)(C)C)n2)c1`: > 4.52; for `CC1(C)[C@H]2CC[C@@H](CNc3nc(Cl)nc(Nc4ccc5ncsc5c4)n3)[C@@H]1C2`: > 5.00; for `Cc1ccc(-c2nnco2)cc1Nc1nc(N[C@@H]2CCNC2)nc(N(C)CC(C)(C)C)n1`: > 6.00.
The result for `CONC(=O)c1ccc(F)c(Sc2nc(N(C)CC(C)(C)C)nc(N3CCCN(C)CC3)n2)c1` reads > 4.52; that for `Cc1ccc(C(N)=O)cc1Nc1nc(N[C@H]2CCN(Cc3ccc(O)cc3)C2)nc(N(C)CC(C)(C)C)n1`, > 6.00.
For the compound `Cc1ccc(C(N)=O)cc1Nc1nc(NC2CCN(Cc3ccccn3)C2)nc(N(C)CC(C)C)n1` (stereo unspecified), the pIC50 was > 6.00.
The same measure for `Cc1cc2c(cc1Cl)C(=O)N2c1nc(N[C@H]2CCNC2)nc(N(C)CC(C)(C)C)n1`: > 6.00.
The result for `CC(CNc1nc(Nc2ccc3ncsc3c2)nc(N2CC3CC2CN3C(=O)Cc2ccc(Cl)c(Cl)c2)n1)c1ccccc1` (stereo unspecified) reads > 5.00.
The same measure for `Cc1ccc(C(N)=O)cc1N(C)c1nc(NC2CCCC2)nc(N[C@H]2CCNC2)n1`: > 6.00; for `Cc1ccc(C(N)=O)cc1Nc1nc(N[C@H]2CCN(C(C#N)c3ccccc3)C2)nc(N(C)CC(C)C)n1` (stereo partly specified): > 6.00.
`CONC(=O)c1ccc(C)c(Nc2nc(NCc3ccccc3)nc(N(C)CC(C)(C)C)n2)c1`: the pIC50 was > 6.00.
Take `CN(C)c1nc(Nc2ccc3ncsc3c2)nc(NC(C)(C)Cc2ccccc2)n1`: the pIC50 was > 5.00.
The result for `Cc1ccc(C(N)=O)cc1Nc1nc(N[C@H]2CCNC2)nc(N(C)CC(C)C(F)(F)F)n1` (stereo partly specified) reads > 6.00; that for `Cc1ccc(C(=O)O)cc1Nc1nc(N[C@H]2CCNC2)nc(N(C)CC(C)(C)C)n1`, > 6.00; that for `CCOC(=O)N1CCN(c2nc(NC[C@@H]3CC[C@H]4C[C@@H]3C4(C)C)nc(Nc3ccc4ncsc4c3)n2)CC1`, > 5.00.
The result for `Cc1ccc(C(=O)NC2CCCCC2)cc1Nc1nc(N[C@H]2CCNC2)nc(N(C)CC(C)(C)C)n1` reads > 6.00; that for `Cc1ccc(C(N)=O)cc1Nc1nc(NC2CCN(C)C2)nc(N(C)CC(C)C)n1` (stereo unspecified), > 6.00; that for `CCc1ccc(CN2CC[C@@H](Nc3nc(Nc4cc(C(N)=O)ccc4C)nc(N(C)CC(C)C)n3)C2)cc1`, > 6.00.
With `Cc1ccc(C(N)=O)cc1Nc1nc(NC2CCN(Cc3ccccc3)C2)nc(N(C)CC(C)(C)C)n1` (stereo unspecified), the pIC50 was > 6.00.
The result for `C=CCN1CC[C@H](Nc2nc(Nc3cc(C(=O)NC(C)C)ccc3C)nc(N(C)CC3CCCC3)n2)C1` reads > 6.00.
The result for `Cc1ccc(C(N)=O)cc1Nc1nc(N[C@H]2CCN(c3ccccc3N)C2)nc(N(C)CC(C)(C)C)n1` reads > 6.00; that for `Cc1c(Nc2nc(NCC(C)c3ccccc3)nc(N3CCNCC3)n2)ccc2ncsc12` (stereo unspecified), > 5.00.
With `CNC(=O)c1ccc(C(F)(F)F)c(Nc2nc(N[C@H]3CCNC3)nc(N(C)CC(C)(C)C)n2)c1`, the pIC50 is > 6.00.
The result for `CC1(C)[C@H]2CC[C@@H](CNc3nc(N4CCCNCC4)nc(N4CCc5ccc([N+](=O)[O-])cc54)n3)[C@@H]1C2` reads > 6.00; that for `CCC(C)CNc1nc(Nc2cc(C(N)=O)ccc2C)nc(N[C@H]2CCNC2)n1` (stereo partly specified), > 6.00; that for `COCCN1CCC(Nc2nc(Nc3cc(C(N)=O)ccc3C)nc(N(C)CC(C)C)n2)C1` (stereo unspecified), > 6.00.
The result for `Cc1ccc(C(N)=O)cc1Nc1nc(N[C@H]2CCN(C3CCCC3)C2)nc(N(C)CC(C)C)n1` reads > 6.00; that for `Cc1ccc(C(N)=O)cc1Nc1nc(N[C@H]2CCN(Cc3ccccc3C#N)C2)nc(N(C)CC(C)C)n1`, > 6.00; that for `CCONC(=O)c1ccc(C)c(Nc2nc(N[C@H]3CCNC3)nc(N(C)CC(C)(C)C)n2)c1`, > 6.00.
The same measure for `CC(C)NC(=O)N1CCN(c2nc(NCC(C)c3ccccc3)nc(Nc3ccc4ncsc4c3)n2)CC1` (stereo unspecified): > 5.00; for `Clc1nc(Nc2ccc3ncsc3c2)nc(N[C@H]2C[C@H]2c2ccccc2)n1`: > 5.00; for `Cc1ccc(C(N)=O)cc1Nc1nc(N[C@@H]2CCNC2)nc(N2CCCC(C(N)=O)C2)n1` (stereo partly specified): > 6.00.
Take `CONC(=O)c1ccc(C)c(Nc2nc(N[C@H]3CNC(=O)C3)nc(N(C)CC(C)(C)C)n2)c1`: the pIC50 was > 6.00.
As to `CC1(C)C2CCC(CNc3cc(Nc4ccc5ncsc5c4)nc(N4CCNCC4)n3)C1C2` (stereo unspecified), the pIC50 was > 5.00.
The result for `Cc1ccc(C(N)=O)cc1Nc1nc(N[C@H]2CCN(Cc3ccccn3)C2)nc(N(C)CC(C)C)n1` reads > 6.00; that for `Cc1ccc(C(N)=O)cc1Nc1nc(NC[C@H]2CCCN2)nc(N(C)CC(C)(C)C)n1`, > 6.00.
With `Cc1ccc(C(N)=O)cc1Nc1nc(N[C@H]2CN[C@H](C)C2)nc(N(C)CC(C)(C)C)n1`, the pIC50 was > 6.00.
The result for `CC1(C)[C@@H]2CC[C@@H](CNc3nc(Nc4cc(C(N)=O)ccc4Cl)nc(NC4CCNC4)n3)[C@H]1C2` (stereo partly specified) reads > 6.00.
The same measure for `CCc1ccc(C(N)=O)cc1Nc1nc(NCC(C)(C)C)nc(N[C@H]2CCNC2)n1`: > 6.00; for `Cc1ccc(C(N)=O)cc1Nc1nc(NC2CCN(Cc3ccc(C(C)C)cc3)C2)nc(N(C)CC(C)C)n1` (stereo unspecified): > 6.00.
The result for `Cc1ccc(C(N)=O)cc1Nc1nc(NC2CCN(C(C)C)CC2)nc(N(C)CC(C)(C)C)n1` reads > 6.00; that for `Cc1ccc(C(N)=O)cc1Nc1nc(N[C@@H]2CCCC[C@H]2N)nc(N(C)CC(C)C)n1`, > 6.00.
With `Clc1nc(Nc2ccc3ncsc3c2)nc(N2CCC3CCCCC3C2)n1` (stereo unspecified), the pIC50 was > 5.00.
Turning to `CC(C)OCCNc1cc(N(C)C)nc(-n2cnc3ccccc32)n1`, the pIC50 is > 5.00.
The result for `Cc1ccc(C(N)=O)cc1Nc1nc(NCC2(c3ccccc3)CC2)nc(N[C@H]2CCNC2)n1` reads > 6.00; that for `Cc1ccc(C(N)=O)cc1Nc1nc(N[C@H]2CCN(C3CCC3)C2)nc(N(C)CC(C)C)n1`, > 6.00.
For the compound `CN(CCN(C)c1nc(NCC2CCC3CC2C3(C)C)nc(Nc2ccc3ncsc3c2)n1)C(=O)CCC(=O)O` (stereo unspecified), the pIC50 was > 5.00.
The result for `CC1(C)C2CCC(CNc3nc(N)nc(Nc4ccc(S(=O)(=O)N(C=O)c5ncccn5)cc4)n3)C1C2` (stereo unspecified) reads > 5.00.
The same measure for `Cc1ccc(C(N)=O)cc1Nc1nc(NC2CCCC2)nc(N[C@@H]2CCNC2)n1`: > 6.00; for `CCOC(=O)Nc1ccc(C)c(Nc2nc(NCCN3CCCC3)nc(N(C)CC(C)(C)C)n2)c1`: > 6.00.
The same measure for `Cc1ccc(COC(=O)C(F)(F)F)cc1Nc1nc(N[C@H]2CCNC2)nc(N(C)CC(C)(C)C)n1`: > 6.00.
On to `O=C(O)CCC(=O)N1CCN(c2nc(NCC3CCCCC3)nc(Nc3ccc4ncsc4c3)n2)CC1`, for which the negative-log IC50 (pIC50) was > 5.00.
The same measure for `CC(Cc1ccccc1)Nc1nc(Nc2ccc3ncsc3c2)nc(N(C)C)n1` (stereo unspecified): > 5.00; for `Cc1ccc(C(N)=O)cc1Nc1nc(N[C@H]2CCCC[C@H]2N)nc(N(C)CC(C)C)n1`: > 6.00.
The same measure for `COC(=O)CC(CNc1nc(Cl)nc(Nc2ccc3ncsc3c2)n1)c1ccc(Cl)cc1` (stereo unspecified): > 5.00; for `CC(CNc1nc(Nc2ccc3ncsc3c2)nc(N(C)CCCN(C)C(=N)N)n1)c1ccccc1` (stereo unspecified): > 5.00; for `CCNC(=O)c1ccc(C)c(Nc2nc(N[C@H]3CCNC3)nc(N(C)CC(C)C)n2)c1`: > 6.00.
The result for `Cc1ccc(C(N)=O)cc1Nc1nc(O)nc(NC2CCCC2)n1` reads > 6.00; that for `Cc1ccc(S(N)(=O)=O)cc1Nc1nc(N[C@H]2CCNC2)nc(N(C)CC(C)(C)C)n1`, > 6.00.
As for `Cc1ccc(C(N)=O)cc1Nc1nc(N[C@@H]2CCNC2)nc(OC[C@@H]2CC[C@H]3C[C@H]2C3(C)C)n1`, the pIC50 was > 6.00.
Consider `CNC(=O)c1ccc(C)c(Nc2nc(N[C@H]3CCNC3)nc(N(C)CC(C)C)n2)c1`, for which the pIC50 is > 6.00.
For `CC(CNc1nc(Cl)nc(Nc2ccc3ncsc3c2)n1)c1ccccc1` (stereo unspecified), the pIC50 is > 5.00.
The same measure for `CN(CC(C)(C)C)c1nc(N[C@@H]2CCNC2)nc(Sc2cc(C(N)=O)ccc2F)n1`: > 4.52; for `CC1(C)[C@H]2CCC(COc3nc(O)nc(Nc4ccc5ncsc5c4)n3)[C@@H]1C2` (stereo partly specified): > 5.00.
In the case of `Cc1ccc(C(=O)NCCC(C)C)cc1Nc1nc(N[C@H]2CCNC2)nc(N(C)CC(C)(C)C)n1`, the pIC50 was > 6.00.
The result for `CONC(=O)c1ccc(C)c(Nc2nc(N(C)CC(C)(C)C)nc(N3CCCNCC3)n2)c1` reads > 6.00; that for `CONC(=O)c1ccc(C)c(Nc2nc(Cl)nc(N(C)CC(C)(C)C)n2)c1`, > 6.00.
The same measure for `Cc1ccc(C(N)=O)cc1Nc1nc(N[C@H]2CN[C@@H](C)C2)nc(N(C)CC(C)(C)C)n1`: > 6.00.
The result for `CNC(=O)c1ccc(C)c(Oc2nc(N(C)CC(C)(C)C)nc(N3CCCN(C)CC3)n2)c1` reads > 4.52; that for `Cc1ccc(C(N)=O)cc1Nc1nc(NCC2CCC3CC2C3(C)C)nc(NC2CCNC2)n1` (stereo unspecified), > 6.00; that for `CONC(=O)c1ccc(C)c(Nc2nc(N[C@@H]3CCCNC3=O)nc(N(C)CC(C)(C)C)n2)c1`, > 6.00.
For `CC(C)c1nc(NC[C@@H]2CC[C@@H]3C[C@H]2C3(C)C)nc(Nc2ccc3ncsc3c2)n1`, the pIC50 was > 5.00.
As for `Cc1ccc(C(N)=O)cc1Nc1nc(N[C@H]2CCNC2)nc(N(C)CC(C)c2ccccc2)n1` (stereo partly specified), the pIC50 was > 6.00.
The result for `Cc1ccc(C(N)=O)cc1Nc1nc(N[C@@H]2CCNC2)nc(N(C)CC2(C)CCCC2)n1` reads > 6.00; that for `Cc1ccc(C(N)=O)cc1Nc1nc(NC[C@@H]2CC[C@H]3C[C@@H]2C3(C)C)nc(N[C@@H]2CCNC2)n1`, > 6.00; that for `Cc1ccc(C(=O)Nc2c(Cl)cccc2Cl)cc1Nc1nc(N[C@H]2CCNC2)nc(N(C)CC(C)(C)C)n1`, > 6.00.
The same measure for `CC(CNc1cc(N2CCOCC2)nc(Nc2ccc3ncccc3c2)n1)c1ccccc1` (stereo unspecified): > 5.00; for `Cc1ccc(C(=O)Nc2cccc(N(C)C)c2)cc1Nc1nc(N[C@H]2CCNC2)nc(N(C)CC(C)(C)C)n1`: > 6.00.
The same measure for `Cc1ccc(C(N)=O)cc1Nc1nc(N[C@H]2CCN(C(C)c3cccnc3)C2)nc(N(C)CC(C)C)n1` (stereo partly specified): > 6.00.

The record behind these values is the Kinase Knowledgebase extract (Sharma et al. 2016).
